# Experimental data: patent US20010016560A1, “Herbicidal compositions” (priority 1998, published 2001)
# Legend:
# AMASP [1] = assay: Field test Brazil, pre-emergence, heavy clay soil (Example 1); assay type: in vivo; settings: 95 days after treatment vs untreated plot, g/ha: Cpd A 150, Tebuthiuron 500, mix 500+150
# Procedure: (§1) [0042] The following test was conducted in Brazil: Tebuthiuron (used as the commercial formulation “Combine™”, a suspension concentrate containing […] active ingredient) and 5-cyclopropyl-4-(2-methylsulfonyl-4-trifluoromethyl)benzoylisoxazole (isoxaflutole, hereafter referred to as Compound A), which was formulated as wettable granules, were sprayed alone and in tank mix combination (spray rate 300 l/ha) to a plot 5 meters by 3 meters pre-emergence of the weeds and ratoon sugarcane (varieties RB72 454 and […]). The soil was a heavy clay soil containing 1.8% organic matter, […] (pH 5.3) and had been sown on the same day as application with the weed species (the application was made to the ratoon cane about 90 days after cutting and before re-growth). Visual assessment was made 95 days after treatment in comparison with an untreated control plot. Two replicates were performed.
# BRAPL [2] = assay: as above; assay type: in vivo; settings: 95 days after treatment vs untreated plot, g/ha: Cpd A 150, Tebuthiuron 500, mix 500+150
# Procedure: as §1
# DIGHO [3] = assay: as above; assay type: in vivo; settings: 95 days after treatment vs untreated plot, g/ha: Cpd A 150, Tebuthiuron 500, mix 500+150
# Procedure: as §1
# ECHCG [4] = assay: as above; assay type: in vivo; settings: 95 days after treatment vs untreated plot, g/ha: Cpd A 150, Tebuthiuron 500, mix 500+150
# Procedure: as §1
# ELEIN [5] = assay: as above; assay type: in vivo; settings: 95 days after treatment vs untreated plot, g/ha: Cpd A 150, Tebuthiuron 500, mix 500+150
# Procedure: as §1
# PANMA = assay: as above; assay type: in vivo; settings: 95 days after treatment vs untreated plot, g/ha: Cpd A 150, Tebuthiuron 500, mix 500+150
# Procedure: as §1
# SACOF RB68 5089 [6] = assay: Field test Brazil, crop effect, heavy clay soil (Example 1); assay type: in vivo, ratoon sugarcane
# Procedure: as §1
# SACOF RB72 454 [7] = assay: as above; assay type: in vivo, ratoon sugarcane
# Procedure: as §1
# AMASP [8] = assay: Field test Brazil, pre-emergence, light sandy soil (Example 2); assay type: in vivo; settings: 95 days after treatment vs untreated plot, g/ha: Cpd A 150, Tebuthiuron 500, mix 500+150
# Procedure: as §1
# (§2) [0044] The following test was conducted in Brazil following the same procedure as described in Example 1 above but where the soil type was light sandy containing 1.8% organic matter, 82% sand and 13% clay (pH 5.3). Again, two replicates were performed.
# BRAPL [9] = assay: as above; assay type: in vivo; settings: 95 days after treatment vs untreated plot, g/ha: Cpd A 150, Tebuthiuron 500, mix 500+150
# Procedure: as §1, §2
# DIGHO [10] = assay: as above; assay type: in vivo; settings: 95 days after treatment vs untreated plot, g/ha: Cpd A 150, Tebuthiuron 500, mix 500+150
# Procedure: as §1, §2
# ECHCG [11] = assay: as above; assay type: in vivo; settings: 95 days after treatment vs untreated plot, g/ha: Cpd A 150, Tebuthiuron 500, mix 500+150
# Procedure: as §1, §2
# ELEIN [12] = assay: as above; assay type: in vivo; settings: 95 days after treatment vs untreated plot, g/ha: Cpd A 150, Tebuthiuron 500, mix 500+150
# Procedure: as §1, §2
# SIDRH = assay: as above; assay type: in vivo; settings: 95 days after treatment vs untreated plot, g/ha: Cpd A 150, Tebuthiuron 500, mix 500+150
# Procedure: as §1, §2
# SACOF RB68 5089 [13] = assay: Field test Brazil, crop effect, light sandy soil (Example 2); assay type: in vivo, ratoon sugarcane
# Procedure: as §1, §2
# SACOF RB72 454 [14] = assay: as above; assay type: in vivo, ratoon sugarcane
# Procedure: as §1, §2
# [15] = pre-emergence, 95 days after treatment vs untreated plot, heavy clay soil, g/ha: Cpd A 150, Tebuthiuron 500, mix 500+150
# [16] = pre-emergence, 95 days after treatment vs untreated plot, light sandy soil, g/ha: Cpd A 150, Tebuthiuron 500, mix 500+150
compound,measurement,setting,value
"CS(=O)(=O)c1cc(C(F)(F)F)ccc1C(=O)c1cnoc1C1CC1 [Cpd A, 5-cyclopropyl-4-(2-methylsulfonyl-4-trifluoromethyl)benzoylisoxazole]",Visual assessment AMASP,AMASP [1],80
same,Visual assessment BRAPL,BRAPL [2],70
same,Visual assessment DIGHO,DIGHO [3],75
same,Visual assessment ECHCG,ECHCG [4],50
same,Visual assessment ELEIN,ELEIN [5],85
same,Visual assessment PANMA,PANMA,85
same,Visual assessment SACOF RB68 5089 (crop),SACOF RB68 5089 [6]; in vivo,0
same,Visual assessment SACOF RB72 454 (crop),SACOF RB72 454 [7]; in vivo,0
same,Visual assessment AMASP,AMASP [8],27.5
same,Visual assessment BRAPL,BRAPL [9],15
same,Visual assessment DIGHO,DIGHO [10],20
same,Visual assessment ECHCG,ECHCG [11],20
same,Visual assessment ELEIN,ELEIN [12],30
same,Visual assessment SIDRH,SIDRH,10
same,Visual assessment SACOF RB68 5089 (crop),SACOF RB68 5089 [13]; in vivo,0
same,Visual assessment SACOF RB72 454 (crop),SACOF RB72 454 [14]; in vivo,0
CNC(=O)N(C)c1nnc(C(C)(C)C)s1 [Tebuthiuron],Visual assessment AMASP,AMASP [1],75
same,Visual assessment BRAPL,BRAPL [2],10
same,Visual assessment DIGHO,DIGHO [3],10
same,Visual assessment ECHCG,ECHCG [4],10
same,Visual assessment ELEIN,ELEIN [5],20
same,Visual assessment PANMA,PANMA,5
same,Visual assessment SACOF RB68 5089 (crop),SACOF RB68 5089 [6]; [15],0
same,Visual assessment SACOF RB72 454 (crop),SACOF RB72 454 [7]; [15],0
same,Visual assessment AMASP,AMASP [8],70
same,Visual assessment BRAPL,BRAPL [9],20
same,Visual assessment DIGHO,DIGHO [10],20
same,Visual assessment ECHCG,ECHCG [11],15
same,Visual assessment ELEIN,ELEIN [12],20
same,Visual assessment SIDRH,SIDRH,60
same,Visual assessment SACOF RB68 5089 (crop),SACOF RB68 5089 [13]; [16],0
same,Visual assessment SACOF RB72 454 (crop),SACOF RB72 454 [14]; [16],0
